Laboratory results: patent US20220119354A1, “DIAMINO-SUBSTITUTED PYRIDINES AND PYRIMIDINES AS HERBICIDES” (FMC Corporation, priority 2019, published 2022)

What was measured:
Type in all cases: in vivo
[1] = system: kochia (Kochia scoparia); experiment: Test A preemergence, kochia; settings: 0 to 100 scale
Outline: (§1)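 Compound, in a non-phytotoxic solvent blend containing surfactant, is sprayed onto soil immediately after sowing or onto young plants (one- to two-leaf, 2–10 cm). After roughly 10 d under greenhouse conditions, injury is judged by eye relative to untreated plants on a 0–100 control scale.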

[2] = system: barnyardgrass (Echinochloa crus-galli); experiment: Test A preemergence, barnyardgrass; settings: 0 to 100 scale
Outline: as §1

[3] = system: foxtail, giant (Setaria faberii); experiment: Test A preemergence, giant foxtail; settings: 0 to 100 scale
Outline: as §1

[4] = system: corn (Zea mays); experiment: Test A postemergence, corn; settings: 0 to 100 scale
Outline: as §1

[5] = system: rice (Oryza sativa); experiment: Test B flooded paddy test, rice; settings: Flood, 250 g ai/ha, applied to paddy water, 2-leaf stage, visual evaluation after 13 to 15 d
Outline: (§2)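 Rating: 0 = no effect, 100 = complete control, visual, relative to untreated plants. Conditions: 2-leaf stage, 3 cm flood kept constant, compound put directly into water, 13–15 d greenhouse.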

[6] = system: galium (catchweed bedstraw, Galium aparine); experiment: Test A postemergence, galium; settings: 0 to 100 scale
Outline: as §1

[7] = system: ducksalad (Heteranthera limosa); experiment: Test B flooded paddy test, ducksalad; settings: Flood, 250 g ai/ha, applied to paddy water, 2-leaf stage, visual evaluation after 13 to 15 d
Outline: as §2

[8] = system: kochia (Kochia scoparia); experiment: Test A postemergence, kochia; settings: 0 to 100 scale
Outline: as §1

[9] = system: blackgrass (Alopecurus myosuroides); experiment: Test A postemergence, blackgrass; settings: 0 to 100 scale
Outline: as §1

[10] = system: sedge, umbrella (small-flower umbrella sedge, Cyperus difformis); experiment: Test B flooded paddy test, umbrella sedge; settings: Flood, 250 g ai/ha, applied to paddy water, 2-leaf stage, visual evaluation after 13 to 15 d
Outline: as §2

[11] = system: ryegrass, Italian (Lolium multiflorum); experiment: Test A postemergence, Italian ryegrass; settings: 0 to 100 scale
Outline: as §1

[12] = system: ragweed (common ragweed, Ambrosia elatior); experiment: Test A preemergence, ragweed; settings: 0 to 100 scale
Outline: as §1

[13] = system: pigweed (Amaranthus retroflexus); experiment: Test A preemergence, pigweed; settings: 0 to 100 scale
Outline: as §1

[14] = system: ryegrass, Italian (Lolium multiflorum); experiment: Test A preemergence, Italian ryegrass; settings: 0 to 100 scale
Outline: as §1

[15] = system: ragweed (common ragweed, Ambrosia elatior); experiment: Test A postemergence, ragweed; settings: 0 to 100 scale
Outline: as §1

[16] = system: barnyardgrass (Echinochloa crus-galli); experiment: Test A postemergence, barnyardgrass; settings: 0 to 100 scale
Outline: as §1

[17] = system: wheat (Triticum aestivum); experiment: Test A postemergence, wheat; settings: 0 to 100 scale
Outline: as §1

[18] = system: pigweed (Amaranthus retroflexus); experiment: Test A postemergence, pigweed; settings: 0 to 100 scale
Outline: as §1

[19] = system: barnyardgrass (Echinochloa crus-galli); experiment: Test B flooded paddy test, barnyardgrass; settings: Flood, 250 g ai/ha, applied to paddy water, 2-leaf stage, visual evaluation after 13 to 15 d
Outline: as §2

[20] = system: foxtail, giant (Setaria faberii); experiment: Test A postemergence, giant foxtail; settings: 0 to 100 scale
Outline: as §1

C[C@@H](Nc1ncc(C(F)(F)F)c(N)n1)c1cc2cc(Cl)ccc2o1 [Compound 2]
Plant response rating, Kochia ([1]; 125 g ai/ha): 0 | Plant response rating, Kochia ([1]; 500 g ai/ha): 0 | Plant response rating, Barnyardgrass ([2]; 125 g ai/ha): 0 | Plant response rating, Barnyardgrass ([2]; 500 g ai/ha): 0 | Plant response rating, Foxtail, Giant ([3]; 125 g ai/ha): 0 | Plant response rating, Foxtail, Giant ([3]; 500 g ai/ha): 0 | Plant response rating, Corn ([4]; 125 g ai/ha): 0 | Plant response rating, Corn ([4]; 500 g ai/ha): 0 | Plant response rating, Rice (0 to 100 scale, 0 is no effect, 100 is complete control) [5]: 0 | Plant response rating, Galium ([6]; 125 g ai/ha): 0 | Plant response rating, Galium ([6]; 500 g ai/ha): 30 | Plant response rating, Ducksalad (0 to 100 scale, 0 is no effect, 100 is complete control) [7]: 0 | Plant response rating, Kochia ([8]; 125 g ai/ha): 0 | Plant response rating, Kochia ([8]; 500 g ai/ha): 0 | Plant response rating, Blackgrass ([9]; 125 g ai/ha): 0 | Plant response rating, Blackgrass ([9]; 500 g ai/ha): 0 | Plant response rating, Sedge, Umbrella (0 to 100 scale, 0 is no effect, 100 is complete control) [10]: 0 | Plant response rating, Ryegrass, Italian ([11]; 125 g ai/ha): 0 | Plant response rating, Ryegrass, Italian ([11]; 500 g ai/ha): 0 | Plant response rating, Ragweed ([12]; 125 g ai/ha): 0 | Plant response rating, Ragweed ([12]; 500 g ai/ha): 0 | Plant response rating, Pigweed ([13]; 125 g ai/ha): 10 | Plant response rating, Pigweed ([13]; 500 g ai/ha): 20 | Plant response rating, Ryegrass, Italian ([14]; 125 g ai/ha): 0 | Plant response rating, Ryegrass, Italian ([14]; 500 g ai/ha): 0 | Plant response rating, Ragweed ([15]; 125 g ai/ha): 0 | Plant response rating, Ragweed ([15]; 500 g ai/ha): 20 | Plant response rating, Barnyardgrass ([16]; 125 g ai/ha): 0 | Plant response rating, Barnyardgrass ([16]; 500 g ai/ha): 10 | Plant response rating, Wheat ([17]; 125 g ai/ha): 0 | Plant response rating, Wheat ([17]; 500 g ai/ha): 0 | Plant response rating, Pigweed ([18]; 125 g ai/ha): 40 | Plant response rating, Pigweed ([18]; 500 g ai/ha): 90 | Plant response rating, Barnyardgrass (0 to 100 scale, 0 is no effect, 100 is complete control) [19]: 0 | Plant response rating, Foxtail, Giant ([20]; 125 g ai/ha): 0 | Plant response rating, Foxtail, Giant ([20]; 500 g ai/ha): 0

C[C@@H](Nc1ncc(C(F)(F)F)c(N)n1)c1cccc2ccccc12 [Compound 3]
Plant response rating, Kochia ([1]; 125 g ai/ha): 30 | Plant response rating, Kochia ([1]; 500 g ai/ha): 100 | Plant response rating, Barnyardgrass ([2]; 125 g ai/ha): 10 | Plant response rating, Barnyardgrass ([2]; 500 g ai/ha): 100 | Plant response rating, Foxtail, Giant ([3]; 125 g ai/ha): 10 | Plant response rating, Foxtail, Giant ([3]; 500 g ai/ha): 90 | Plant response rating, Corn ([4]; 125 g ai/ha): 0 | Plant response rating, Corn ([4]; 500 g ai/ha): 10 | Plant response rating, Rice (0 to 100 scale, 0 is no effect, 100 is complete control) [5]: 0 | Plant response rating, Galium ([6]; 125 g ai/ha): 30 | Plant response rating, Galium ([6]; 500 g ai/ha): 90 | Plant response rating, Ducksalad (0 to 100 scale, 0 is no effect, 100 is complete control) [7]: 30 | Plant response rating, Kochia ([8]; 125 g ai/ha): 30 | Plant response rating, Kochia ([8]; 500 g ai/ha): 90 | Plant response rating, Blackgrass ([9]; 125 g ai/ha): 0 | Plant response rating, Blackgrass ([9]; 500 g ai/ha): 30 | Plant response rating, Sedge, Umbrella (0 to 100 scale, 0 is no effect, 100 is complete control) [10]: 65 | Plant response rating, Ryegrass, Italian ([11]; 125 g ai/ha): 0 | Plant response rating, Ryegrass, Italian ([11]; 500 g ai/ha): 0 | Plant response rating, Ragweed ([12]; 125 g ai/ha): 100 | Plant response rating, Ragweed ([12]; 500 g ai/ha): 100 | Plant response rating, Pigweed ([13]; 125 g ai/ha): 100 | Plant response rating, Pigweed ([13]; 500 g ai/ha): 100 | Plant response rating, Ryegrass, Italian ([14]; 125 g ai/ha): 20 | Plant response rating, Ryegrass, Italian ([14]; 500 g ai/ha): 90 | Plant response rating, Ragweed ([15]; 125 g ai/ha): 30 | Plant response rating, Ragweed ([15]; 500 g ai/ha): 90 | Plant response rating, Barnyardgrass ([16]; 125 g ai/ha): 20 | Plant response rating, Barnyardgrass ([16]; 500 g ai/ha): 80 | Plant response rating, Wheat ([17]; 125 g ai/ha): 20 | Plant response rating, Wheat ([17]; 500 g ai/ha): 0 | Plant response rating, Pigweed ([18]; 125 g ai/ha): 90 | Plant response rating, Pigweed ([18]; 500 g ai/ha): 100 | Plant response rating, Barnyardgrass (0 to 100 scale, 0 is no effect, 100 is complete control) [19]: 0 | Plant response rating, Foxtail, Giant ([20]; 125 g ai/ha): 0 | Plant response rating, Foxtail, Giant ([20]; 500 g ai/ha): 40
